Among the data in patent US7262199B2, “Tyrosine kinase inhibitors” (Merck & Co., Inc., priority 2002, dated 2007) are melting point values, retold here.

As usually defined, the melting point is the temperature, or range, at which the solid turns liquid.

As to `c1ccc(-c2cnn3cc(-c4ccc(CCCN5CCOCC5)cc4)cnc23)cc1` [Compound 2-6, 6-[4-(3-morpholin-4-ylpropyl)phenyl]-3-phenylpyrazolo[1,5-a]pyrimidine], the melting point was in the range of 147 to 149 °C.
